Assay results reported in US5869500A, “Pyridone compounds useful in treating Alzheimer's disease” (Hoffmann-La Roche Inc., priority 1996, dated 1999).
pIC50: −log10 of the molar value. Counter-ions that a name gives are not always drawn.

Legend:
[1] = test system: Aβ production in HEK cells over-expressing mutated β-APP (SFAD); experiment: Aβ production inhibition, sandwich-ELISA in HEK cells, over-expressed mutated β-APP (SE-SFAD); type: cell-based, human; settings: Homo sapiens, HEK293, HEK cells; for pIC50: based on the respective plateau of maximum inhibition; for Emax: maximum inhibition plateau, read-out: SE-SFAD max. inhibition %
In short: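 HEK cells expressing recombinant human wild-type or mutated (SFAD) β-APP treated with compound for 24 to 48 hours at 37° C, 10% CO2. IC50 based on plateau of maximum inhibition.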

[2] = test system: Aβ production in HEK cells over-expressing Wild type β-APP; experiment: Aβ production inhibition, sandwich-ELISA in HEK cells which over-express Wild type β-APP (SE-WT); type: cell-based, human; settings: Homo sapiens; for pIC50: HEK293, based on the respective plateau of maximum inhibition; for Emax: HEK293, maximum inhibition plateau, read-out: SE-WT max. inhibition %
Procedure: The effect of test substances on the inhibition of Aβ-amyloid production can be measured in the supernatant of cell cultures of β-APP expressed cells using ELISA tests or other quantitative determination methods for β-APP degradation products. Typically, 8×10^5 cells (e.g. HEK cells, which express recombinant human β-APP variants) are plated out in each well of a culture dish having 24 wells in growth media such as e.g. OPTIMEM (Gibco) and the test compound is then added. After an incubation period of 24 to 48 hours at 37° C. in a 10% CO2 atmosphere the supernatant is removed from the cell cultures and the β-APP degradation products (e.g. Aβ or β-[…]) are determined with the aid of ELISA (or sandwich ELISA) analysis or by means of quantitative immunoprecipitation (after metabolic radiolabelling of the cell proteins). Typically, 300 μl of the cell supernatant are tested according to the state of the art for ELISA tests in culture dishes having 96 wells. In the case of sandwich ELISA for Aβ, the binding antibody can be directed against the first 16 amino acids of Aβ-peptide (e.g. 6E10 Senetek, Maryland Heights, Mo.) and the detection antibody can be directed against amino acids 17-40 or 17-42 of Aβ and carries a detection system such as e.g. peroxidase. A simple ELISA test with an antibody, e.g. 22C11 (Boehringer Mannheim), can be used as the test for […]; the second antibody can be an anti-(mouse) Ig having a detection system, such as e.g. peroxidase. The peroxidase reaction can be carried out e.g. using a TMB substrate (BioRAD) and the measurements can be carried out at 650 nm using an ELISA reading apparatus. […] SE-SFAD signifies the Aβ production inhibition measured using sandwich-ELISA in HEK cells, SFAD signifies over-expressed mutated β-APP, and SE-WT signifies the Aβ production inhibition measured using sandwich-ELISA in HEK cells which over-express Wild type β-APP. The IC50 values are based on the respective plateau of maximum inhibition.

SMILES	pIC50 [1]	Emax [1] [%]	pIC50 [2]	Emax [2] [%]
COc1cccc(-c2cc(C(=O)NCc3ccccc3)c3c4sccc4ccn3c2=O)c1 [Compound 116, 8-(3-Methoxy-phenyl)-7-oxo-7H-thieno[2,3-a]quinolizine-10-carboxylic acid benzyl-amide]	6.10	100	6.00	60 to 80
CON(C)C(=O)c1cc(-c2ccccc2)c(=O)n2ccc3ccsc3c12 [Compound 54, 7--Oxo-8-phenyl-7H-thieno[2,3-a]quinolizine-10-carboxylic acid methoxy-methyl-amide]	5.22	30	5.52	40
CCCOC1CN(C(=O)c2cc(-c3ccccc3)c(=O)n3ccc4ccsc4c23)C1 [Compound 1, 8-Phenyl-10-(3-propoxy-azetidin-1-carbonyl)-thieno[2,3-a]quinolizin-7-one]	5.70	65	5.40	75
CCN(CCOC)C(=O)c1cc(-c2ccccc2)c(=O)n2ccc3ccsc3c12 [Compound 20, 7-Oxo-8-phenyl-7H-thieno[2,3-a]quinolizine-10-carboxylic acid (2-methoxy-ethyl)-ethyl-amide]	4.82	30	5.05	70
COC1CN(C(=O)c2cc(-c3ccccc3)c(=O)n3ccc4ccsc4c23)C1 [Compound 39, 10-(3-Methoxy-azetidine-1-carbonyl)-8-phenyl-thieno[2,3-a]quinolizin-7-one]	5.15	30	5.22	50
O=c1c(-c2ccccc2)cc(-c2nc(C3CC3)no2)c2c3sccc3ccn12 [Compound 62, 10-(3-Cyclopropyl-[1,2,4]oxadiazol-5-yl)-8-phenyl-thieno[2,3-a]-quinolizin-7-one]	6.30	65	5.57	80
CN(C)CCOC(=O)c1cc(-c2ccccc2)c(=O)n2ccc3ccsc3c12 [Compound 53, 2-Dimethylamino-ethyl 7-oxo-8-phenyl-7H-thieno[2,3-a]quinolizine-10-carboxylate hydrochloride]	5.02	80	5.10	100
COC(=O)c1cc(-c2ccc(C(C)(C)C)cc2)c(=O)n2ccc3ccsc3c12 [Compound 106, Methyl 8-(4-tert-butyl-phenyl)-7-oxo-7H-thieno[2,3-a]quinolizine-10-carboxylate]	5.64	85	6.10	95
O=C(OCc1ccccn1)c1cc(-c2ccccc2)c(=O)n2ccc3ccsc3c12 [Compound 6, Pyridin-2-yl-methyl 7-oxo-8-phenyl-7H-thieno[2,3-a]quinolizine-10-carboxylate]	5.52	50	6.22	75
COC1CCCCC1N(C)C(=O)c1cc(-c2ccccc2)c(=O)n2ccc3ccsc3c12 (stereo not drawn) [Compound 26, 7-Oxo-8-phenyl-7H-thieno[2,3-a]quinolizine-10-(2-methoxycyclohexyl)-methyl-amide]	5.30	80	5.92	100
O=C(OCCN1CCCC1=O)c1cc(-c2ccccc2)c(=O)n2ccc3ccsc3c12 [Compound 29, 2-(2-Oxo-pyrrolidin-1-yl)-ethyl 7-oxo-8-phenyl-7H-thieno[2,3-a]-quinolizine-10-carboxylate]	5.52	40	5.39	80
Cc1cc(C)n(C(=O)c2cc(-c3ccccc3)c(=O)n3ccc4ccsc4c23)n1 [Compound 45, 10-(3,5-Dimethyl-pyrazole-1-carbonyl)-8-phenyl-thieno[2,3-a]-quinolizin-7-one]	6.05	40	6.30	30
COCCN(C(=O)c1cc(-c2ccc(OCc3ccccc3)cc2)c(=O)n2ccc3cc(I)sc3c12)c1ccccc1 [Compound 81, 8-(4-Benzyloxy-phenyl)-2-iodo-7-oxo-7H-thieno[2,3-a]quinolizine-10-carboxylic acid (2-methoxy-ethyl)-phenyl-amide]	> 6.00	50	5.92	100
O=C(OCCN1CCOCC1)c1cc(-c2ccccc2)c(=O)n2ccc3ccsc3c12 [Compound 32, 2-Morpholin-4-yl-ethyl 7-oxo-8-phenyl-7H-thieno[2,3-a]quinolizine-10-carboxylate hydrochloride]	4.52	100	5.52	100
O=C(OCCn1ccnc1)c1cc(-c2ccccc2)c(=O)n2ccc3ccsc3c12 [Compound 2, 2-Imidazol-1-yl-ethyl 7-oxo-8-phenyl-7H-thieno[2,3-a]quinolizine-10-carboxylate]	5.00	50	5.92	70
COC1CCCN(C(=O)c2cc(-c3ccccc3)c(=O)n3ccc4ccsc4c23)C1 (stereo not drawn) [Compound 14, 10-(3-Methoxy-piperidine-1-carbonyl)-8-phenyl-thieno[2,3-a]-quinolizine-7-on]	5.64	50	5.10	70
COCC1CCCN1C(=O)c1cc(-c2ccccc2)c(=O)n2ccc3ccc(Cl)cc3c12 (stereo not drawn) [Compound 37, 10-Chloro-1-(2-methoxymethyl-pyrrolidine-1-carbonyl)-3-phenyl-pyrido [2,1-a]isoquinolin-4-one]	5.15	100	6.00	70
COC1CCN(C(=O)c2cc(-c3ccccc3)c(=O)n3ccc4ccc(Cl)cc4c23)C1 (stereo not drawn) [Compound 41, 10-Chloro-1-(3-methoxy-pyrrolidine-1-carbonyl)-3-phenyl-pyrido [2,1-a]isoquinolin-4-one]	5.22	100	5.46	75
O=C(c1cc(-c2ccccc2)c(=O)n2ccc3ccsc3c12)n1ccnc1 [Compound 52, 10-(Imidazole-1-carbonyl)-8-phenyl-thieno[2,3-a]quinolizin-7-one]	5.30	25	4.92	45
O=C(OCCN1CCOC1=O)c1cc(-c2ccccc2)c(=O)n2ccc3ccsc3c12 [Compound 5, 2-(2-Oxo-oxazolidin-3-yl)-ethyl 7-oxo-8-phenyl-7H-thieno[2,3-a]-quinolizine-10-carboxylate]	6.00	25	5.92	60
CCCN(CCOC)C(=O)c1cc(-c2ccc(C(C)(C)C)cc2)c(=O)n2ccc3ccsc3c12 [Compound 108, 8-(4-tert-Butyl-phenyl)-7-oxo-7H-thieno[2,3-a]quinolizine-10-carboxylicacid (2-methoxy-ethyl)-propyl-amide]	5.85	100	6.00	100
COCCN(C(=O)c1cc(-c2ccccc2)c(=O)n2ccc3ccsc3c12)c1ccccc1 [Compound 23, 7-Oxo-8-phenyl-7H-thieno[2,3-a]quinolizine-10-carboxylic acid (2-methoxy-ethyl)phenyl-amide]	5.17	100	5.47	100
CC(=O)OC[C@H]1CCCN1C(=O)c1cc(-c2ccccc2)c(=O)n2ccc3ccsc3c12 [Compound 12, 1-(7-Oxo-8-phenyl-7H-thieno[2,3-a]quinolizine-10-carbonyl)-pyrrolidin-2-(R)-yl-methyl acetate]	–	–	6.00	50
COCCN(C)C(=O)c1cc(-c2ccccc2)c(=O)n2ccc3ccsc3c12 [Compound 19, 7-Oxo-8-phenyl-7H-thieno[2,3-a]quinolizine-10-carboxylic acid (2-methoxy-ethyl)-methyl-amide]	–	–	4.70	100
CCN(CCO)C(=O)c1cc(-c2ccccc2)c(=O)n2ccc3ccsc3c12 [Compound 21, 7-Oxo-8-phenyl-7H-thieno[2,3-a]quinolizine-10-carboxylic acid (2-hydroxy-ethyl)-ethyl-amide]	–	–	4.40	100
O=C(c1cc(-c2ccccc2)c(=O)n2ccc3ccsc3c12)N1CCC[C@@H]1CI [Compound 11, 10-(2-(R)-Iodomethyl-pyrrolidine-1-carbonyl)-8-phenyl-thieno[2,3-a]-quinolizin-7-one]	–	–	4.96	100
